Experimental findings from US10597364B2, “Anthelmintic compounds, compositions and method of using thereof” (priority 2015, dated 2020) are described below.

The inhibition is the percentage by which the read-out fell short of the control.

Each structure is given as a SMILES string. A value given as a limit tells only on which side of the number the result lay.

For the first test, the system named is Haemonchus contortus. The test is described as follows: Method A: Haemonchus contortus L1 larval development/motility screen in microtitre plate. Type of test: cell-based. The note with it: 96 h, read-out: motility inhibition.
For the compound `O=C(Nc1ccc(C(F)(F)F)cc1)N1CCN(c2cncc(O[C@H]3CC[C@H](Nc4ccc([N+](=O)[O-])c(C(F)(F)F)c4)CC3)c2)CC1` [Compound 94], the inhibition at 5 µM is no less than 90%.
On the same count and under the same terms, as for `CCCOC(=O)N1CCN(c2cc(O[C@H]3CC[C@H](Nc4ccc(C#N)c(C(F)(F)F)c4)CC3)ccn2)CC1` [Compound 176], the figure is no less than 90%; as for `CCCOC(=O)N1CCN(c2ccnc(O[C@H]3CC[C@H](Nc4ccc(C#N)c(C(F)(F)F)c4)CC3)c2)CC1` [Compound 74], no less than 90%.
Same read-out and setting: then `N#Cc1ccc(N[C@H]2CC[C@H](Oc3cncc(N4CCN(C(=O)CC5CCCC5)CC4)c3)CC2)cc1C(F)(F)F` [Compound 180], with no less than 90%.
For the compound `O=[N+]([O-])c1ccc(N[C@H]2CC[C@H](Oc3cncc(N4CCN(S(=O)(=O)C(F)(F)F)CC4)c3)CC2)cc1C(F)(F)F` [Compound 63], the inhibition at 5 µM was no less than 90%.
Still for that read-out and setting: then `O=C(CC1CCCC1)N1CCN(c2cncc(O[C@H]3CC[C@H](Nc4ccc([N+](=O)[O-])c(C(F)(F)F)c4)CC3)c2)CC1` [Compound 20], with no less than 90%; and `O=C(CC1CCCC1)N1CCN(c2ccnc(O[C@H]3CC[C@H](Nc4ccc(S(=O)(=O)C(F)(F)F)cc4)CC3)c2)CC1` [Compound 163], with no less than 90%; and `CCCCC(=O)N1CCN(c2cncc(O[C@H]3CC[C@H](Nc4ccc([N+](=O)[O-])c(C(F)(F)F)c4)CC3)c2)CC1` [Compound 19, 1-[4-(5-[[4-[[4-nitro-3-(trifluoromethyl)phenyl]amino]cyclohexyl]oxy]pyridin-3-yl)piperazin-1-yl]pentan-1-one], with no less than 90%.
In the case of `CC(C)(C)OC(=O)N1CCN(c2cncc(O[C@H]3CC[C@H](Nc4ccc(C#N)c(C(F)(F)F)c4)CC3)c2)CC1` [Compound 50], the inhibition at 5 µM is no less than 90%.
On the same count and under the same terms, as for `CC(C)(C)CN1CCN(c2ccnc(O[C@H]3CC[C@H](Nc4ccc([N+](=O)[O-])c(C(F)(F)F)c4)CC3)c2)CC1` [Compound 84], the figure is no less than 90%; as for `O=C(CC1CCCC1)N1CCN(c2cncc(O[C@H]3CC[C@H](Nc4ccc(S(=O)(=O)C(F)(F)F)cc4)CC3)c2)CC1` [Compound 193], no less than 90%.
In the case of `O=[N+]([O-])c1ccc(N[C@H]2CC[C@H](Oc3cncc(N4CCN(C(=S)Nc5ccc(C(F)(F)F)cc5)CC4)c3)CC2)cc1C(F)(F)F` [Compound 88], the inhibition at 5 µM is no less than 90%.

A further test concerns microfilaria of Dirofilaria immitis. The experiment in a line: Method C: microfilaria of Dirofilaria immitis motility screen. The following applies: 10 μM, 24 hours, read-out: inhibition of the microfilaria's motility. In kind it is cell-based.
Consider `CN(c1ccc([N+](=O)[O-])c(C(F)(F)F)c1)[C@H]1CC[C@H](Oc2ccnc(N3CCN(C(=O)NC(C)(C)C)CC3)c2)CC1` [Compound 132], for which the inhibition at 10 µM is no less than 90%.

Still in this test, the particulars now being: 5 ppm, 24 hours, read-out: inhibition of the microfilaria's motility.
`CCCNC(=O)N1CCN(c2cccc(O[C@H]3CC[C@H](Nc4ccc([N+](=O)[O-])c(C(F)(F)F)c4)CC3)n2)CC1` [Compound 127, N-propyl-4-(6-[[4-[[4-nitro-3-(trifluoromethyl)phenyl]amino]cyclohexyl]oxy]pyridin-2-yl)piperazine-1-carboxamide]: the inhibition at 5 ppm is no less than 90%.

The test is the same for the next values; noted with them: 24 h, read-out: inhibition of the microfilaria's motility.
Consider `O=[N+]([O-])c1ccc(N[C@H]2CC[C@H](Oc3ccnc(N4CCN(CC(F)(F)F)CC4)c3)CC2)cc1C(F)(F)F` [Compound 108], for which the inhibition at 5 ppm was no less than 90%.
For `O=[N+]([O-])c1ccc(N[C@H]2CC[C@H](Oc3cccc(N4CCN(CC5CCCC5)CC4)n3)CC2)cc1C(F)(F)F` [Compound 142], the inhibition at 10 µM is no less than 90%.
In the case of `CCNC(=S)N1CCN(c2cncc(O[C@H]3CC[C@H](Nc4ccc([N+](=O)[O-])c(C(F)(F)F)c4)CC3)c2)CC1` [Compound 124], the inhibition at 5 ppm is no less than 90%.
For the compound `O=[N+]([O-])c1ccc(N[C@H]2CC[C@H](Oc3ccnc(N4CCN(Cc5ccc(C(F)(F)F)cc5)CC4)c3)CC2)cc1C(F)(F)F` [Compound 56], the inhibition at 1 ppm is no less than 90% and the inhibition at 5 ppm is no less than 90%.
In the case of `CCCCC(=O)N1CCN(c2cccc(O[C@H]3CC[C@H](Nc4ccc([N+](=O)[O-])c(C(F)(F)F)c4)CC3)n2)CC1` [Compound 136], the inhibition at 10 µM was no less than 90%.
Take `CNC(=S)N1CCN(c2cncc(O[C@H]3CC[C@H](Nc4ccc([N+](=O)[O-])c(C(F)(F)F)c4)CC3)c2)CC1` [Compound 128]: the inhibition at 5 ppm was no less than 90%.
The same measure, in the same setting: as for `CCCNC(=S)N1CCN(c2cncc(O[C@H]3CC[C@H](Nc4ccc([N+](=O)[O-])c(C(F)(F)F)c4)CC3)c2)CC1` [Compound 119], the figure is no less than 90%; as for `CNC(=S)N1CCN(c2ccnc(O[C@H]3CC[C@H](Nc4ccc([N+](=O)[O-])c(C(F)(F)F)c4)CC3)c2)CC1` [Compound 129], no less than 90%.
Take `CNC(=S)N1CCN(c2cccc(O[C@H]3CC[C@H](Nc4ccc([N+](=O)[O-])c(C(F)(F)F)c4)CC3)n2)CC1` [Compound 130]: the inhibition at 5 ppm was no less than 90%.
Turning to `CCNC(=O)N1CCN(c2cccc(O[C@H]3CC[C@H](Nc4ccc([N+](=O)[O-])c(C(F)(F)F)c4)CC3)n2)CC1` [Compound 131], the inhibition at 5 ppm was no less than 90%.
Regarding `CC(C)(C)NC(=S)N1CCN(c2cncc(O[C@H]3CC[C@H](Nc4ccc([N+](=O)[O-])c(C(F)(F)F)c4)CC3)c2)CC1` [Compound 91], the inhibition at 5 ppm is no less than 90%.
With `CCCOC(=O)N1CCN(c2cc(O[C@H]3CC[C@H](Nc4ccc(S(=O)(=O)C(F)(F)F)cc4)CC3)ccn2)CC1` [Compound 187], the inhibition at 10 µM is no less than 90%.
`CC(C)(C)OC(=O)N1CCN(c2cc(O[C@H]3CC[C@H](Nc4ccc(C#N)c(C(F)(F)F)c4)CC3)ccn2)CC1` [Compound 151]: the inhibition at 10 µM was no less than 90%.
Take `CCC(=O)N1CCN(c2cccc(O[C@H]3CC[C@H](Nc4ccc([N+](=O)[O-])c(C(F)(F)F)c4)CC3)n2)CC1` [Compound 115]: the inhibition at 5 ppm was no less than 90%.
As to `CC(C)(C)NC(=S)N1CCN(c2cccc(O[C@H]3CC[C@H](Nc4ccc([N+](=O)[O-])c(C(F)(F)F)c4)CC3)n2)CC1` [Compound 116], the inhibition at 5 ppm is no less than 90%.
Regarding `CCCNC(=S)N1CCN(c2ccnc(O[C@H]3CC[C@H](Nc4ccc([N+](=O)[O-])c(C(F)(F)F)c4)CC3)c2)CC1` [Compound 99], the inhibition at 1 ppm was no less than 90% and the inhibition at 5 ppm is no less than 90%.
As for `CNC(=O)N1CCN(c2cncc(O[C@H]3CC[C@H](Nc4ccc([N+](=O)[O-])c(C(F)(F)F)c4)CC3)c2)CC1` [Compound 154], the inhibition at 10 µM is no less than 90%.
Regarding `O=[N+]([O-])c1ccc(N[C@H]2CC[C@H](Oc3ccnc(N4CC5CN(c6ccc(C(F)(F)F)cn6)CC5C4)c3)CC2)cc1C(F)(F)F` (stereo partly shown) [Compound 140], the inhibition at 10 µM was no less than 90%.
In the case of `CCCNC(=S)N1CCN(c2cccc(O[C@H]3CC[C@H](Nc4ccc([N+](=O)[O-])c(C(F)(F)F)c4)CC3)n2)CC1` [Compound 120], the inhibition at 5 ppm is no less than 90%.
On to `O=C(NC1CCCC1)N1CCN(c2cccc(O[C@H]3CC[C@H](Nc4ccc([N+](=O)[O-])c(C(F)(F)F)c4)CC3)n2)CC1` [Compound 147], for which the inhibition at 10 µM was no less than 90%.
The same measure, in the same setting: as for `CC(C)(C)OC(=O)N1CCN(c2cc(O[C@H]3CC[C@H](Nc4ccc(S(=O)(=O)C(F)(F)F)cc4)CC3)ccn2)CC1` [Compound 186], the figure is no less than 90%.
In the case of `O=[N+]([O-])c1ccc(N[C@H]2CC[C@H](Oc3cncc(N4CCN(C(=S)Nc5ccc(F)cc5)CC4)c3)CC2)cc1C(F)(F)F` [Compound 92], the inhibition at 5 ppm is no less than 90%.
As to `O=C(Nc1ccc(F)cc1)N1CCN(c2ccnc(O[C@H]3CC[C@H](Nc4ccc([N+](=O)[O-])c(C(F)(F)F)c4)CC3)c2)CC1` [Compound 112], the inhibition at 10 µM was no less than 90%.
With `CCNC(=S)N1CCN(c2cccc(O[C@H]3CC[C@H](Nc4ccc([N+](=O)[O-])c(C(F)(F)F)c4)CC3)n2)CC1` [Compound 125], the inhibition at 5 ppm is no less than 90%.
Still for that read-out and setting: then `CC(C)(C)OC(=O)N1CCN(c2ncccc2O[C@H]2CC[C@H](Nc3ccc([N+](=O)[O-])c(C(F)(F)F)c3)CC2)CC1` [Compound 121], with no less than 90%.
On to `O=C(Cc1cc(C(F)(F)F)cc(C(F)(F)F)c1)N1CCN(c2cc(O[C@H]3CC[C@H](Nc4ccc([N+](=O)[O-])c(C(F)(F)F)c4)CC3)ccn2)CC1` [Compound 137], for which the inhibition at 10 µM is no less than 90%.
Still for that read-out and setting: as for `CCCN1CCN(c2cccc(O[C@H]3CC[C@H](Nc4ccc([N+](=O)[O-])c(C(F)(F)F)c4)CC3)n2)CC1` [Compound 158], the figure is no less than 90%.
`CCOC(=O)N1CCN(c2cccc(O[C@H]3CC[C@H](Nc4ccc([N+](=O)[O-])c(C(F)(F)F)c4)CC3)n2)CC1` [Compound 110]: the inhibition at 5 ppm was no less than 90%.
With `O=C(Nc1ccc(C(F)(F)F)cc1)N1CCN(c2cccc(O[C@H]3CC[C@H](Nc4ccc([N+](=O)[O-])c(C(F)(F)F)c4)CC3)n2)CC1` [Compound 139], the inhibition at 10 µM is no less than 90%.
On to `CNC(=O)N1CCN(c2ccnc(O[C@H]3CC[C@H](Nc4ccc([N+](=O)[O-])c(C(F)(F)F)c4)CC3)c2)CC1` [Compound 155], for which the inhibition at 10 µM was no less than 90%.
Same read-out and setting: as for `CCCCN1CCN(c2cccc(O[C@H]3CC[C@H](Nc4ccc([N+](=O)[O-])c(C(F)(F)F)c4)CC3)n2)CC1` [Compound 157], the figure is no less than 90%; as for `CCN1CCN(c2cc(O[C@H]3CC[C@H](Nc4ccc([N+](=O)[O-])c(C(F)(F)F)c4)CC3)ccn2)CC1` [Compound 160], no less than 90%; as for `O=C(Nc1ccc(C(F)(F)F)cc1)N1CCN(c2ccnc(O[C@H]3CC[C@H](Nc4ccc([N+](=O)[O-])c(C(F)(F)F)c4)CC3)c2)CC1` [Compound 138], no less than 90%.
Regarding `O=S(=O)(c1ccc(N[C@H]2CC[C@H](Oc3cncc(N4CCN(c5ccc(C(F)(F)F)cn5)CC4)c3)CC2)cc1)C(F)(F)F` [Compound 195], the inhibition at 10 µM is no less than 90%.
Same read-out and setting: then `CC(C)(C)NC(=O)N1CCN(c2cccc(O[C@H]3CC[C@H](Nc4ccc([N+](=O)[O-])c(C(F)(F)F)c4)CC3)n2)CC1` [Compound 150], with no less than 90%.
For `CC(C)(C)NC(=S)N1CCN(c2ccnc(O[C@H]3CC[C@H](Nc4ccc([N+](=O)[O-])c(C(F)(F)F)c4)CC3)c2)CC1` [Compound 93], the inhibition at 5 ppm was no less than 90%.
